Data as given in patent US12016312B2, “Animal models, screening methods, and treatment methods for intraocular diseases or disorders” (ZHUHAI QIWEI BIO-TECHNOLOGY LTD., priority 2018, dated 2024).
Entries after “also recorded” stand apart in the source; their conditions may differ.

Assays:
Bacillus megaterium [1] = experiment: Antibiotic sensitivity screening test in petri dishes (MIC method); assay type: cell-based; details: 10^-1 to 10^-5 mg/mL
Method: (§1) The bacterial culture medium (HuanKai Microbial, Guangzhou, China) containing peptone 5 g, beef extract 3 g, NaCl 5 g, agar 15 g, and MnSO4 5 mg in 1 L ddH2O (pH=7.2) was prepared in conical flask (Drtech, Guangzhou, China) and was sterilized in the autoclave (HIRAYAMA, HEV-50, Japan) at 121° C. for 30 min. Bacillus megaterium (total 1*10^7 per culture) was cultured in the incubator (HettCube 200, Germany) at 37° C. for 24 h.
To test whether antibiotics can control the growth of Bacillus megaterium in vitro and in vivo, we first carried out an antibiotic sensitivity screening test in petri dishes which were made in example 1. The sensitivity of Bacillus megaterium to several major antimicrobial agents including ampicillin, vancomycin, neomycin, metronidazole and tetracycline were examined using the minimum inhibitory concentration (MIC) method. Ampicillin, vancomycin, neomycin, metronidazole, and tetracycline (purchased from Sigma, USA) at various concentrations (10^−1, 10^−2, 10^−3, 10^−4, 10^−5 mg/mL) were added into cooled medium.
as §1, with “Bacillus megaterium (total 1*10^7 per culture) was cultured in the incubator (HettCube 200, Germany) at 37° C. for 24 h.” left out

Bacillus megaterium [2] = experiment: Bacillus megaterium subretinal inoculation model, drusenoid pathology in monkey retinal tissues; assay type: in vivo, Macaca fascicularis; details: intravitreous, 0.5 mg, one injection on Day 2 post bacterial inoculation; macaque
Method: The macaques were sedated by intramuscular injection of a mixture of tiletamine hydrochloride (2.5 mg/kg) and xolazepam hydrochloride (2.5 mg/kg). After instilling topical anesthesia (0.5% proparacaine hydrochloride), the eyes were immediately visualized in vivo using a light microscope. The pupils were then dilated with 0.5% tropicamide and 0.5% phenylephrine to obtain the fundus photographs. […] Under microscopic monitoring, 20 μl of PBS (with or without bacteria) was injected into the subretinal space between photo receptors and RPE (retinal pigment epithelium), using a NanoFil Syringe Nanofil-100 for Microinjection (World Precision Instruments, USA). All procedures were done using sterile instruments. The macaque was euthanized 47 days post inoculation and the eyeball was enucleated for histological analyses. The eyeballs were fixed in 4% paraformaldehyde for 48 h and then embedded in paraffin. Sections were cut on a microtome at 6 μm and stained with H&E.
We examined whether subretinal inoculation of AH and VH cultures, as well as the cultured single species of B. megaterium led to AMD like pathology in macaque. About 20 CFU of bacteria (in 20 μl PBS) from AH, VH, and B. megaterium cultures were injected subretinally and PBS was used as a control (illustrated in FIG. 6). […]

## Cc1ncc([N+](=O)[O-])n1CCO [metronidazole]
Bacillus megaterium [1]
  fold less effective in controlling the growth of Bacillus megaterium (relative to neomycin): 10000 fold

## neomycin
Bacillus megaterium [1]; 1*10^7 bacteria per culture, 37° C., 24 h
  sensitivity of Bacillus megaterium to antimicrobial agents (control of growth in vitro): most sensitive; also recorded: best in vitro activity

## CN[C@H](CC(C)C)C(=O)N[C@H]1C(=O)N[C@@H](CC(N)=O)C(=O)N[C@H]2C(=O)N[C@H]3C(=O)N[C@H](C(=O)N[C@H](C(=O)O)c4cc(O)cc(O)c4-c4cc3ccc4O)[C@H](O)c3ccc(c(Cl)c3)Oc3cc2cc(c3O[C@@H]2O[C@H](CO)[C@@H](O)[C@H](O)[C@H]2O[C@H]2C[C@](C)(N)[C@H](O)[C@H](C)O2)Oc2ccc(cc2Cl)[C@H]1O [vancomycin]
Bacillus megaterium [2]
  size of drusenoid lesion in retinal tissue: reduce drusenoid lesion; also recorded: reduction in the size of drusenoid lesion
